Test results taken from patent US20230065745A1, “PIPERIDINE-2,6-DIONE DERIVATIVES WHICH BIND TO CEREBLON, AND METHODS OF USE THEREOF” (Captor Therapeutics S.A., priority 2019, published 2023).

Columns and labels:
[1] = system: CK1α; assay: CK1α degradation assay, Kelly cell line (Western blot densitometry); format: cell-based; settings: 24 h
Protocol: Cells were seeded on 6-well plates, and the compounds to be tested were added at the desired concentration range. […] After 24 h incubation (37° C., 5% CO2), cells were washed and cell lysates were prepared using RIPA lysis buffer. The amount of protein was determined via BCA assay, and the appropriate quantity was then loaded on the precast gel for the protein separation. After primary and secondary Ab staining, the membranes were washed and signals developed. The densitometry analysis was implemented to obtain the numeric values used later in the protein level evaluation process.
(§1) The treatment with all compounds was carried out for 24 h.
(§2) Densitometry values are normalized to the loading control ((3-ACTIN) and presented as % of DMSO control, using the following labels: […]

[2] = system: IKZF1; assay: IKZF1 degradation assay, H929 cell line (Western blot densitometry); format: cell-based; settings: for % of IKZF1 protein reduction, based on densitometry values: 24 h
Protocol: Cells were seeded on 6- or 12-well plates, and the compounds to be tested were added at the desired concentration range. […] After 6 or 24 h incubation (3TC, 5% CO2), cells were harvested, washed and cell lysates were prepared using RIPA lysis buffer. The amount of protein was determined via BCA assay, and the appropriate quantity was then loaded on the precast gel for the protein separation. After primary and secondary Ab staining, the membranes were washed and signals developed. The densitometry analysis was implemented to obtain the numeric values used later in the protein level evaluation process. […] The treatment with all compounds was carried out for 24 h.

[3] = system: IKZF3; assay: IKZF3 degradation assay, H929 cell line (Western blot densitometry); format: cell-based; settings: 24 h
Protocol: Cells were seeded on 6- or 12-well plates, and the compounds to be tested were added at the desired concentration range. […] After 24 h incubation (3TC, 5% CO2), cells were harvested, washed and cell lysates were prepared using RIPA lysis buffer. The amount of protein was determined via BCA assay, and the appropriate quantity was then loaded on the precast gel for the protein separation. After primary and secondary Ab staining, the membranes were washed and signals developed. The densitometry analysis was implemented to obtain the numeric values used later in the protein level evaluation process.
as §1, §2

[4] = target: CRBN-DDB1 protein complex (Homo sapiens, UniProt Q96SW2); assay: Fluorescence Polarization (FP) assay, displacement of Cy5-labelled thalidomide; settings: 25 nM CRBN-DDB1, 5 nM Cy5-labelled thalidomide, read-out: CRBN binding Ki
Protocol: CRBN-DDB1 protein complex was mixed with Cy5-labelled thalidomide and a compound to be tested (the “test compound”). […] The test solution was added to a 384-well assay plate.
The plate was spun-down (1 min, 1000 rpm, 22° C.) and then shaken using a VibroTurbulator for 10 min at room temperature (20-25° C.), with the frequency set to level 3. The assay plate with protein and the tracer was incubated for 60 min at room temperature (20-25° C.) prior to read-out with a plate reader.
The FP experiment was carried out with various concentrations of the test compounds in order to measure Ki values.

Chain of CRBN-DDB1 protein complex (Q96SW2 whole entry): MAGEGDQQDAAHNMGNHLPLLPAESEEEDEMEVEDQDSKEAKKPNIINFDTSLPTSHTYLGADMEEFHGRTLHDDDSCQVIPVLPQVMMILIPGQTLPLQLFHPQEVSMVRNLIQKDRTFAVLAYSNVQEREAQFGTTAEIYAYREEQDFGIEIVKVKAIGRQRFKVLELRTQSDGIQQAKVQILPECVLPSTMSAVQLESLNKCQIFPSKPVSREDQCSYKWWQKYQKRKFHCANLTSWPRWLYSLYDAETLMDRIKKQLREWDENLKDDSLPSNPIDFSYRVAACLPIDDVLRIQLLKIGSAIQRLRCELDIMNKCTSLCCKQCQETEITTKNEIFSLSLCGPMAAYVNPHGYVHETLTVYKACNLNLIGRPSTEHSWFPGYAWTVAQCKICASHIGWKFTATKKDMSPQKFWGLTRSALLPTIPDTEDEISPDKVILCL
Chain of CRBN-DDB1 protein complex (Q16531 whole entry partner): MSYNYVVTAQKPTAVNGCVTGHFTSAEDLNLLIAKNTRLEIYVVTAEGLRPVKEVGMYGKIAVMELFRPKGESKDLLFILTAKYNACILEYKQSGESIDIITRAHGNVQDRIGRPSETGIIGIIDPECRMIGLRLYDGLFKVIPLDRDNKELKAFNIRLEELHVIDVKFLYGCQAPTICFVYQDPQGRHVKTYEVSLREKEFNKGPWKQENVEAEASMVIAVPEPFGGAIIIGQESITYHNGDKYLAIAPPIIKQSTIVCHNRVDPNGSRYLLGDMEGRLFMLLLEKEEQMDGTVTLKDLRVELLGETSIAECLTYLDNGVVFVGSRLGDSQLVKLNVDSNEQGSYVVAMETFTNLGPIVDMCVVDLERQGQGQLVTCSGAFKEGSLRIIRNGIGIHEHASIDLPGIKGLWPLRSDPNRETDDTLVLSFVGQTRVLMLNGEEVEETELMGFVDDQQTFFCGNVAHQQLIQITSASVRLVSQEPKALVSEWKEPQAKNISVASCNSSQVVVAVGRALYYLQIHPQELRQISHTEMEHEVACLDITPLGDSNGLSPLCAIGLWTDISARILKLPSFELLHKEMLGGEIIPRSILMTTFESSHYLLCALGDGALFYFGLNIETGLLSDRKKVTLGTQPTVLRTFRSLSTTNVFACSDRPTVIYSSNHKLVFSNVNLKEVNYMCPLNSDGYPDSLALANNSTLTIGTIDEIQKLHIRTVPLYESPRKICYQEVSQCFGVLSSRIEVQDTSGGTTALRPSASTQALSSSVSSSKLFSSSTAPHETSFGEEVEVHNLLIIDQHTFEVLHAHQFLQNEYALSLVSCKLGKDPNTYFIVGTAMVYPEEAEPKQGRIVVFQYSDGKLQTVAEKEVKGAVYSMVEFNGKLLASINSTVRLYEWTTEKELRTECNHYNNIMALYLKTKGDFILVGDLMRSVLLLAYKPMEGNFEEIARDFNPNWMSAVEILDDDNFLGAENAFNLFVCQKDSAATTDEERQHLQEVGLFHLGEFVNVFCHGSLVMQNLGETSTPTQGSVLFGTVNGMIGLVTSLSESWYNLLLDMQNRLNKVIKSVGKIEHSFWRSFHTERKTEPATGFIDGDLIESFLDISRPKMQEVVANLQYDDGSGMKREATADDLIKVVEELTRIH

SMILES | Ki [4] | % of CK1α protein reduction, based on densitometry values ([1]; 1 μM) | % of CK1α protein reduction, based on densitometry values ([1]; 10 μM) | % of CK1α protein reduction, based on densitometry values ([1]; 20 μM) | CK1α degradation (in words) [1] | % of IKZF1 protein reduction, based on densitometry values ([2]; 1 μM) | % of IKZF1 protein reduction, based on densitometry values ([2]; 10 μM) | % of IKZF1 protein reduction, IKZF 1 (24 H, 20 μM) [2] | % of IKZF3 protein reduction, based on densitometry values ([3]; 1 μM) | % of IKZF3 protein reduction, based on densitometry values ([3]; 10 μM)
Nc1cccc2c1C(=O)N(C1CCC(=O)NC1=O)C2=O (stereo not drawn) [Pomalidomide, pomalidomide, reference compound] | – | >25% (>25% for 26-74% of CK1α protein reduction) | >25% (>25% for 26-74% of CK1α protein reduction) | >25% (>25% for 26-74% of CK1α protein reduction) | to a lesser degree | ≥75% (≥75% for 75-100% of IKZF1 protein reduction) | ≥75% (≥75% for 75-100% of IKZF1 protein reduction) | ≥75% (≥75% for 75-100% of IKZF1 protein reduction) | ≥75% (≥75% for 75-100% of IKZF3 protein reduction) | ≥75% (≥75% for 75-100% of IKZF3 protein reduction)
COCc1ncc(C(=O)NC2CCC(=O)NC2=O)s1 (stereo not drawn) [Compound 111, N-(2,6-dioxopiperidin-3-yl)-2-(methoxymethyl)thiazole-5-carboxamide] | 10 to 50 µM | – | – | – | – | ≤25% (≤25% for 0-25% of IKZF1 protein reduction) | ≤25% (≤25% for 0-25% of IKZF1 protein reduction) | ≤25% (≤25% for 0-25% of IKZF1 protein reduction) | ≤25% (≤25% for 0-25% of IKZF3 protein reduction) | ≤25% (≤25% for 0-25% of IKZF3 protein reduction)
Cc1nc2cccc(N)c2c(=O)n1C1CCC(=O)NC1=O (stereo not drawn) [CC-122, reference compound] | – | ≤25% (≤25% for 0-25% of CK1α protein reduction) | ≤25% (≤25% for 0-25% of CK1α protein reduction) | ≤25% (≤25% for 0-25% of CK1α protein reduction) | lack of degradation | ≥75% (≥75% for 75-100% of IKZF1 protein reduction) | ≥75% (≥75% for 75-100% of IKZF1 protein reduction) | – | ≥75% (≥75% for 75-100% of IKZF3 protein reduction) | ≥75% (≥75% for 75-100% of IKZF3 protein reduction)
COc1sccc1C(=O)N[C@@H]1CCC(=O)NC1=O [Compound 22, (R)—N-(2,6-dioxopiperidin-3-yl)-2-methoxythiophene-3-carboxamide] | 10 to 50 µM | – | – | >25% (>25% for 26-74% of CK1α protein reduction) | – | – | – | ≤25% (≤25% for 0-25% of IKZF1 protein reduction) | – | –
CC(C)(C)c1ncc(C(=O)NC2CCC(=O)NC2=O)s1 (stereo not drawn) [Compound 73, 2-(tert-butyl)-N-(2,6-dioxopiperidin-3-yl)thiazole-5-carboxamide] | 10 to 50 µM | – | – | – | – | – | – | ≤25% (≤25% for 0-25% of IKZF1 protein reduction) | – | –
CNC(=O)c1cc(C(=O)NC2CCC(=O)NC2=O)c(NC(C)=O)s1 (stereo not drawn) [Compound 14, 5-acetamido-N^4-(2,6-dioxopiperidin-3-yl)-5-acetamido-N^2-methylthiophene-2,4-dicarboxamide] | 5 to 10 µM | – | – | – | – | – | – | ≤25% (≤25% for 0-25% of IKZF1 protein reduction) | – | –
CC(C)(C)OC(=O)Nc1sccc1C(=O)NC1CCC(=O)NC1=O (stereo not drawn) [Compound 1, tert-butyl (3-((2,6-dioxopiperidin-3-yl)carbamoyl)thiophen-2-yl)carbamate] | 10 to 50 µM | – | – | – | – | – | – | ≤25% (≤25% for 0-25% of IKZF1 protein reduction) | – | –
COc1ncc(C(=O)NC2CCC(=O)NC2=O)s1 (stereo not drawn) [Compound 75, N-(2,6-dioxopiperidin-3-yl)-2-methoxythiazole-5-carboxamide] | 10 to 50 µM | – | – | – | – | – | – | ≤25% (≤25% for 0-25% of IKZF1 protein reduction) | – | –

Now from value to compound, other results behind:

Ki [4] | SMILES | % of CK1α protein reduction, based on densitometry values ([1]; 1 μM) | % of CK1α protein reduction, based on densitometry values ([1]; 10 μM) | % of CK1α protein reduction, based on densitometry values ([1]; 20 μM) | CK1α degradation (in words) [1] | % of IKZF1 protein reduction, based on densitometry values ([2]; 1 μM) | % of IKZF1 protein reduction, based on densitometry values ([2]; 10 μM) | % of IKZF1 protein reduction, IKZF 1 (24 H, 20 μM) [2] | % of IKZF3 protein reduction, based on densitometry values ([3]; 1 μM) | % of IKZF3 protein reduction, based on densitometry values ([3]; 10 μM)
< 5 µM | O=C1CCC(NC(=O)c2sc(Cl)c3cccnc23)C(=O)N1 (stereo not drawn) [Compound 106, 5-chloro-N-(2,6-dioxopiperidin-3-yl)thieno[3,4-b]pyridine-7-carboxamide] | – | – | – | – | ≤25% (≤25% for 0-25% of IKZF1 protein reduction) | ≤25% (≤25% for 0-25% of IKZF1 protein reduction) | ≤25% (≤25% for 0-25% of IKZF1 protein reduction) | ≤25% (≤25% for 0-25% of IKZF3 protein reduction) | ≤25% (≤25% for 0-25% of IKZF3 protein reduction)
< 5 µM | COc1cscc1C(=O)NC1CCC(=O)NC1=O (stereo not drawn) [Compound 54, N-(2,6-dioxopiperidin-3-yl)-4-methoxythiophene-3-carboxamide] | >25% (>25% for 26-74% of CK1α protein reduction) | >25% (>25% for 26-74% of CK1α protein reduction) | >25% (>25% for 26-74% of CK1α protein reduction) | – | – | – | – | – | –
< 5 µM | COc1sccc1C(=O)N[C@H]1CCC(=O)NC1=O [Compound 21, (S)—N-(2,6-dioxopiperidin-3-yl)-2-methoxythiophene-3-carboxamide] | – | – | >25% (>25% for 26-74% of CK1α protein reduction) | – | – | – | ≤25% (≤25% for 0-25% of IKZF1 protein reduction) | – | –
< 5 µM | COc1ccsc1C(=O)NC1CCC(=O)NC1=O (stereo not drawn) [Compound 108, N-(2,6-dioxopiperidin-3-yl)-3-methoxythiophene-2-carboxamide] | – | – | >25% (>25% for 26-74% of CK1α protein reduction) | – | ≤25% (≤25% for 0-25% of IKZF1 protein reduction) | ≤25% (≤25% for 0-25% of IKZF1 protein reduction) | ≤25% (≤25% for 0-25% of IKZF1 protein reduction) | ≤25% (≤25% for 0-25% of IKZF3 protein reduction) | ≤25% (≤25% for 0-25% of IKZF3 protein reduction)
< 5 µM | CC(=O)Nc1sc(C#N)cc1C(=O)NC1CCC(=O)NC1=O (stereo not drawn) [Compound 9, 5-cyano-N-(2,6-dioxopiperidin-3-yl)-2-acetamidothiophene-3-carboxamide] | – | – | – | – | – | – | ≤25% (≤25% for 0-25% of IKZF1 protein reduction) | – | –
< 5 µM | COc1sccc1C(=O)NC1CCC(=O)NC1=O (stereo not drawn) [Compound 20, N-(2,6-dioxopiperidin-3-yl)-2-methoxythiophene-3-carboxamide] | – | – | – | – | ≤25% (≤25% for 0-25% of IKZF1 protein reduction) | ≤25% (≤25% for 0-25% of IKZF1 protein reduction) | ≤25% (≤25% for 0-25% of IKZF1 protein reduction) | ≤25% (≤25% for 0-25% of IKZF3 protein reduction) | ≤25% (≤25% for 0-25% of IKZF3 protein reduction)
< 5 µM | CC(C)(C)OC(=O)Nc1ncc(C(=O)NC2CCC(=O)NC2=O)s1 (stereo not drawn) [Compound 71, tert-butyl (5-((2,6-dioxopiperidin-3-yl)carbamoyl)thiazol-2-yl)carbamate] | – | – | – | – | – | – | ≤25% (≤25% for 0-25% of IKZF1 protein reduction) | – | –
< 5 µM | O=C1CCC(NC(=O)c2scc3cccnc23)C(=O)N1 (stereo not drawn) [Compound 107, N-(2,6-dioxopiperidin-3-yl)thieno[3,4-b]pyridine-7-carboxamide] | – | – | – | – | ≤25% (≤25% for 0-25% of IKZF1 protein reduction) | ≤25% (≤25% for 0-25% of IKZF1 protein reduction) | – | ≤25% (≤25% for 0-25% of IKZF3 protein reduction) | ≤25% (≤25% for 0-25% of IKZF3 protein reduction)
